# In ChEMBL document CHEMBL3885881, “DrugMatrix”:
# Species on record: Rattus norvegicus
# Assay: DrugMatrix - Regimen: Daily Repeat
# Format: toxicity, organism-based, Sprague-Dawley
# Set-up: regimen Daily Repeat, gender Male, age 6-8 weeks
# Details: in vivo, po, route oral GAVAGE, […]; for ABSOLUTE BASOPHIL / ABSOLUTE EOSINOPHIL / ABSOLUTE LYMPHOCYTE / ABSOLUTE MONOCYTE / ABSOLUTE SEGMENTED NEUTROPHIL / BASOPHIL / EOSINOPHIL / ERYTHROCYTE COUNT / HEMATOCRIT / HEMOGLOBIN / LEUKOCYTE COUNT / LYMPHOCYTE / MEAN CORPUSCULAR HEMOGLOBIN / MEAN CORPUSCULAR HEMOGLOBIN CONCENTRATION / MEAN CORPUSCULAR VOLUME / MONOCYTE / NEUTROPHIL / NUCLEATED RED BLOOD CELLS / PLATELET COUNT: tissue Blood; for ALANINE AMINOTRANSFERASE / ALBUMIN / ALKALINE PHOSPHATASE / ASPARTATE AMINOTRANSFERASE / BLOOD UREA NITROGEN / CARBON DIOXIDE / CHLORIDE / CHOLESTEROL / CREATINE PHOSPHOKINASE / CREATININE / GLUCOSE / LACTATE DEHYDROGENASE / LIPASE / PHOSPHORUS / POTASSIUM / SODIUM / TOTAL BILIRUBIN / URIC ACID / TOTAL PROTEIN: tissue Plasma
# [1] = 0.3 mg/kg, 120 h, dose level Low, time 5 day
# [2] = 150 mg/kg, 72 h, dose level High, time 3 day
# [3] = 150 mg/kg, 120 h, dose level High, time 5 day
compound,measurement,setting,value
C[C@]12CC[C@@H]3c4ccc(O)cc4CC[C@H]3[C@@H]1CC[C@@H]2O [ESTRADIOL],ABSOLUTE BASOPHIL,[1],0 CELLS/uL
same,ABSOLUTE EOSINOPHIL,[1],0 CELLS/uL
same,ABSOLUTE LYMPHOCYTE,[1],8421.33 CELLS/uL
same,ABSOLUTE MONOCYTE,[1],178.67 CELLS/uL
same,ABSOLUTE SEGMENTED NEUTROPHIL,[1],333.33 CELLS/uL
same,BASOPHIL,[1],0%
same,EOSINOPHIL,[1],0%
same,ERYTHROCYTE COUNT,[1],5.67 x10E6/uL
same,HEMATOCRIT,[1],36.43%
same,HEMOGLOBIN,[1],14.13 G/DL
same,LEUKOCYTE COUNT,[1],8.93 x10E3/uL
same,LYMPHOCYTE,[1],94.33%
same,MEAN CORPUSCULAR HEMOGLOBIN,[1],24.93 pg
same,MEAN CORPUSCULAR HEMOGLOBIN CONCENTRATION,[1],38.77 G/DL
same,MEAN CORPUSCULAR VOLUME,[1],64.2 fL
same,MONOCYTE,[1],2%
same,NEUTROPHIL,[1],3.67%
same,NUCLEATED RED BLOOD CELLS,[1],0 /100WBC
same,PLATELET COUNT,[1],1136.67 x10E3/uL
same,ALANINE AMINOTRANSFERASE,[1],62 u/L
same,ALBUMIN,[1],4.23 G/DL
same,ALKALINE PHOSPHATASE,[1],381.67 u/L
same,ASPARTATE AMINOTRANSFERASE,[1],80.33 u/L
same,BLOOD UREA NITROGEN,[1],11 mg/dL
same,CARBON DIOXIDE,[1],31.67 mmol/L
same,CHLORIDE,[1],97 MEQ/L
same,CHOLESTEROL,[1],52.67 mg/dL
same,CREATINE PHOSPHOKINASE,[1],324.67 u/L
same,CREATININE,[1],0.15 mg/dL
same,GLUCOSE,[1],162.67 mg/dL
same,LACTATE DEHYDROGENASE,[1],166.67 u/L
same,LIPASE,[1],10.33 u/L
same,PHOSPHORUS,[1],9.63 mg/dL
same,POTASSIUM,[1],5.76 MEQ/L
same,SODIUM,[1],143 MEQ/L
same,TOTAL BILIRUBIN,[1],0.2 mg/dL
same,URIC ACID,[1],0.43 mg/dL
same,ABSOLUTE BASOPHIL,[2],0 CELLS/uL
same,ABSOLUTE EOSINOPHIL,[2],0 CELLS/uL
same,ABSOLUTE LYMPHOCYTE,[2],6738.33 CELLS/uL
same,ABSOLUTE MONOCYTE,[2],100.67 CELLS/uL
same,ABSOLUTE SEGMENTED NEUTROPHIL,[2],527.67 CELLS/uL
same,BASOPHIL,[2],0%
same,EOSINOPHIL,[2],0%
same,ERYTHROCYTE COUNT,[2],5.96 x10E6/uL
same,HEMATOCRIT,[2],36.23%
same,HEMOGLOBIN,[2],13.83 G/DL
same,LEUKOCYTE COUNT,[2],7.37 x10E3/uL
same,LYMPHOCYTE,[2],91.67%
same,MEAN CORPUSCULAR HEMOGLOBIN,[2],23.37 pg
same,MEAN CORPUSCULAR HEMOGLOBIN CONCENTRATION,[2],38.27 G/DL
same,MEAN CORPUSCULAR VOLUME,[2],61 fL
same,MONOCYTE,[2],1.33%
same,NEUTROPHIL,[2],7%
same,NUCLEATED RED BLOOD CELLS,[2],0 /100WBC
same,PLATELET COUNT,[2],934 x10E3/uL
same,ALANINE AMINOTRANSFERASE,[2],64.33 u/L
same,ALBUMIN,[2],3.8 G/DL
same,ALKALINE PHOSPHATASE,[2],760.67 u/L
same,ASPARTATE AMINOTRANSFERASE,[2],90 u/L
same,BLOOD UREA NITROGEN,[2],10 mg/dL
same,CARBON DIOXIDE,[2],33 mmol/L
same,CHLORIDE,[2],100 MEQ/L
same,CHOLESTEROL,[2],22.67 mg/dL
same,CREATINE PHOSPHOKINASE,[2],373.33 u/L
same,CREATININE,[2],0.22 mg/dL
same,GLUCOSE,[2],140.33 mg/dL
same,LACTATE DEHYDROGENASE,[2],223.67 u/L
same,LIPASE,[2],12.33 u/L
same,PHOSPHORUS,[2],8.83 mg/dL
same,SODIUM,[2],145.57 MEQ/L
same,TOTAL BILIRUBIN,[2],0.23 mg/dL
same,TOTAL PROTEIN,[2],5.87 G/DL
same,URIC ACID,[2],0.3 mg/dL
same,ABSOLUTE BASOPHIL,[3],0 CELLS/uL
same,ABSOLUTE EOSINOPHIL,[3],0 CELLS/uL
same,ABSOLUTE LYMPHOCYTE,[3],9738.33 CELLS/uL
same,ABSOLUTE MONOCYTE,[3],202.33 CELLS/uL
same,ABSOLUTE SEGMENTED NEUTROPHIL,[3],759.33 CELLS/uL
same,BASOPHIL,[3],0%
same,EOSINOPHIL,[3],0%
same,ERYTHROCYTE COUNT,[3],6.23 x10E6/uL
same,HEMATOCRIT,[3],39.2%
same,HEMOGLOBIN,[3],14.6 G/DL
same,LEUKOCYTE COUNT,[3],10.7 x10E3/uL
same,LYMPHOCYTE,[3],91%
same,MEAN CORPUSCULAR HEMOGLOBIN,[3],23.43 pg
same,MEAN CORPUSCULAR HEMOGLOBIN CONCENTRATION,[3],37.27 G/DL
same,MEAN CORPUSCULAR VOLUME,[3],62.93 fL
same,MONOCYTE,[3],2%
same,NEUTROPHIL,[3],7%
same,NUCLEATED RED BLOOD CELLS,[3],0 /100WBC
same,PLATELET COUNT,[3],1292.33 x10E3/uL
same,ALANINE AMINOTRANSFERASE,[3],55.33 u/L
same,ALBUMIN,[3],3.87 G/DL
same,ALKALINE PHOSPHATASE,[3],654.67 u/L
same,ASPARTATE AMINOTRANSFERASE,[3],67 u/L
same,BLOOD UREA NITROGEN,[3],7.67 mg/dL
same,CARBON DIOXIDE,[3],29.33 mmol/L
same,CHLORIDE,[3],99.67 MEQ/L
same,CHOLESTEROL,[3],14 mg/dL
same,CREATINE PHOSPHOKINASE,[3],271.33 u/L
same,CREATININE,[3],0.13 mg/dL
same,GLUCOSE,[3],125.67 mg/dL
same,LACTATE DEHYDROGENASE,[3],192.67 u/L
same,LIPASE,[3],7.67 u/L
same,POTASSIUM,[3],5.37 MEQ/L
same,SODIUM,[3],145.23 MEQ/L
same,TOTAL BILIRUBIN,[3],0.2 mg/dL
same,TOTAL PROTEIN,[3],6.67 G/DL
same,URIC ACID,[3],0.3 mg/dL
